Measurements published in patent publication US10442807B2, “Aryl substituted bicyclic compounds as herbicides” (FMC Corporation, priority 2015, dated 2019).

What was measured:
Type in all cases: in vivo
kochia (Kochia scoparia) [1] = assay: Test A preemergence, directed soil spray, visual injury rating; settings: approx. 10 d, 0 = no effect, 100 = complete control
From the text: (§1) Seeds of plant species selected from barnyardgrass (Echinochloa crus-galli), kochia (Kochia scoparia), ragweed (common ragweed, Ambrosia elation), ryegrass, Italian (Italian ryegrass, Lolium multiflorum), foxtail, giant (giant foxtail, Setaria faberii), and pigweed (Amaranthus retroflexus), were planted into a blend of loam soil and sand and treated preemergence with a directed soil spray using test chemicals formulated in a non-phytotoxic solvent mixture which included a surfactant. At the same time, plants selected from these weed species and also blackgrass (Alopecurus myosuroides), galium (catchweed bedstraw, Galium aparine), wheat (Triticum aestivum), and corn (Zea mays) were planted in pots containing the same blend of loam soil and sand and treated with postemergence applications of test chemicals formulated in the same manner. Plants ranged in height from 2 to 10 cm and were in the one- to two-leaf stage for the postemergence treatment. Treated plants and untreated controls were maintained in a greenhouse for approximately 10 d, after which time all treated plants were compared to untreated controls and visually evaluated for injury. Plant response ratings, summarized in Table A, are based on a 0 to 100 scale where 0 is no effect and 100 is complete control. A dash (-) response means no test result.

[2] = tested on: foxtail, giant (giant foxtail, Setaria faberii); assay: as above; settings: approx. 10 d, 0 = no effect, 100 = complete control
From the text: as §1

[3] = tested on: pigweed (Amaranthus retroflexus); assay: as above; settings: approx. 10 d, 0 = no effect, 100 = complete control
From the text: as §1

[4] = tested on: barnyardgrass (Echinochloa crus-galli); assay: as above; settings: approx. 10 d, 0 = no effect, 100 = complete control
From the text: as §1

[5] = tested on: ryegrass, Italian (Italian ryegrass, Lolium multiflorum); assay: as above; settings: approx. 10 d, 0 = no effect, 100 = complete control
From the text: as §1

[6] = tested on: ragweed (common ragweed, Ambrosia elation); assay: as above; settings: approx. 10 d, 0 = no effect, 100 = complete control
From the text: as §1

[7] = tested on: sedge, umbrella (small-flower umbrella sedge, Cyperus difformis); assay: Test B flooded paddy test, visual plant response rating; settings: 250 g ai/ha; applied to paddy water at 2-leaf stage; rated after 13 to 15 days; scale 0 to 100, 0 is no effect, 100 is complete control
From the text: (§2) At time of treatment, test pots were flooded to 3 cm above the soil surface, treated by application of test compounds directly to the paddy water, and then maintained at that water depth for the duration of the test. Treated plants and controls were maintained in a greenhouse for 13 to 15 days, after which time all species were compared to controls and visually evaluated. Plant response ratings, summarized in Table B, are based on a scale of 0 to 100 where 0 is no effect and 100 is complete control. A dash (-) response means no test result.

[8] = tested on: barnyardgrass (Echinochloa crus-galli); assay: as above; settings: 250 g ai/ha; applied to paddy water at 2-leaf stage; rated after 13 to 15 days; scale 0 to 100, 0 is no effect, 100 is complete control
From the text: as §2

rice (Oryza sativa) = assay: as above; settings: 250 g ai/ha; applied to paddy water at 2-leaf stage; rated after 13 to 15 days; scale 0 to 100, 0 is no effect, 100 is complete control
From the text: as §2

[9] = tested on: ducksalad (Heteranthera limosa); assay: as above; settings: 250 g ai/ha; applied to paddy water at 2-leaf stage; rated after 13 to 15 days; scale 0 to 100, 0 is no effect, 100 is complete control
From the text: as §2

[10] = tested on: galium (catchweed bedstraw, Galium aparine); assay: Test A postemergence application, visual injury rating; settings: approx. 10 d, 0 = no effect, 100 = complete control
From the text: as §1

kochia (Kochia scoparia) [11] = assay: as above; settings: approx. 10 d, 0 = no effect, 100 = complete control
From the text: as §1

corn (Zea mays) = assay: as above; settings: approx. 10 d, 0 = no effect, 100 = complete control
From the text: as §1

[12] = tested on: foxtail, giant (giant foxtail, Setaria faberii); assay: as above; settings: approx. 10 d, 0 = no effect, 100 = complete control
From the text: as §1

[13] = tested on: pigweed (Amaranthus retroflexus); assay: as above; settings: approx. 10 d, 0 = no effect, 100 = complete control
From the text: as §1

[14] = tested on: barnyardgrass (Echinochloa crus-galli); assay: as above; settings: approx. 10 d, 0 = no effect, 100 = complete control
From the text: as §1

[15] = tested on: wheat (Triticum aestivum); assay: as above; settings: approx. 10 d, 0 = no effect, 100 = complete control
From the text: as §1

[16] = tested on: ryegrass, Italian (Italian ryegrass, Lolium multiflorum); assay: as above; settings: approx. 10 d, 0 = no effect, 100 = complete control
From the text: as §1

[17] = tested on: ragweed (common ragweed, Ambrosia elation); assay: as above; settings: approx. 10 d, 0 = no effect, 100 = complete control
From the text: as §1

[18] = tested on: blackgrass (Alopecurus myosuroides); assay: as above; settings: approx. 10 d, 0 = no effect, 100 = complete control
From the text: as §1

| Compound | Kochia plant response rating (0 to 100 scale) (kochia (Kochia scoparia) [1]; 125 g ai/ha) | Kochia plant response rating (0 to 100 scale) (kochia (Kochia scoparia) [1]; 500 g ai/ha) | Foxtail, Giant plant response rating (0 to 100 scale) ([2]; 125 g ai/ha) | Foxtail, Giant plant response rating (0 to 100 scale) ([2]; 500 g ai/ha) | Pigweed plant response rating (0 to 100 scale) ([3]; 125 g ai/ha) | Pigweed plant response rating (0 to 100 scale) ([3]; 500 g ai/ha) | Barnyardgrass plant response rating (0 to 100 scale) ([4]; 125 g ai/ha) | Barnyardgrass plant response rating (0 to 100 scale) ([4]; 500 g ai/ha) | Ryegrass, Italian plant response rating (0 to 100 scale) ([5]; 125 g ai/ha) | Ryegrass, Italian plant response rating (0 to 100 scale) ([5]; 500 g ai/ha) | Ragweed plant response rating (0 to 100 scale) ([6]; 125 g ai/ha) | Ragweed plant response rating (0 to 100 scale) ([6]; 500 g ai/ha) | Plant response rating, Flood, Sedge, Umbrella [7] | Plant response rating, Flood, Barnyardgrass [8] | Plant response rating, Flood, Rice (rice (Oryza sativa)) | Plant response rating, Flood, Ducksalad [9] | Galium plant response rating (0 to 100 scale) ([10]; 125 g ai/ha) | Galium plant response rating (0 to 100 scale) ([10]; 500 g ai/ha) | Kochia plant response rating (0 to 100 scale) (kochia (Kochia scoparia) [11]; 125 g ai/ha) | Kochia plant response rating (0 to 100 scale) (kochia (Kochia scoparia) [11]; 500 g ai/ha) | further results |
| --- | --- | --- | --- | --- | --- | --- | --- | --- | --- | --- | --- | --- | --- | --- | --- | --- | --- | --- | --- | --- | --- |
| Cc1nnc2n1CC(c1ccc(Cl)cc1)C2C(=O)Nc1cccc(F)c1F (stereo not drawn) [Compound 5] | 0 | 50 | 50 | 90 | 0 | 0 | 30 | 80 | 20 | 30 | 0 | 40 | 0 | 40 | 0 | 20 | 40 | 70 | 0 | 30 | Corn plant response rating (0 to 100 scale) (corn (Zea mays); 125 g ai/ha): 20; Corn plant response rating (0 to 100 scale) (corn (Zea mays); 500 g ai/ha): 30; Foxtail, Giant plant response rating (0 to 100 scale) ([12]; 125 g ai/ha): 30; Foxtail, Giant plant response rating (0 to 100 scale) ([12]; 500 g ai/ha): 80; Pigweed plant response rating (0 to 100 scale) ([13]; 125 g ai/ha): 0; Pigweed plant response rating (0 to 100 scale) ([13]; 500 g ai/ha): 20; Barnyardgrass plant response rating (0 to 100 scale) ([14]; 125 g ai/ha): 20; Barnyardgrass plant response rating (0 to 100 scale) ([14]; 500 g ai/ha): 80; Wheat plant response rating (0 to 100 scale) ([15]; 125 g ai/ha): 0; Wheat plant response rating (0 to 100 scale) ([15]; 500 g ai/ha): 20; Ryegrass, Italian plant response rating (0 to 100 scale) ([16]; 125 g ai/ha): 0; Ryegrass, Italian plant response rating (0 to 100 scale) ([16]; 500 g ai/ha): 20; Ragweed plant response rating (0 to 100 scale) ([17]; 125 g ai/ha): 0; Ragweed plant response rating (0 to 100 scale) ([17]; 500 g ai/ha): 20; Blackgrass plant response rating (0 to 100 scale) ([18]; 125 g ai/ha): 0; Blackgrass plant response rating (0 to 100 scale) ([18]; 500 g ai/ha): 20 |
| Cc1nnc2n1CC(c1ccc(C(F)(F)F)cc1)C2C(=O)Nc1ccccc1C(F)(F)F (stereo not drawn) [Compound 6] | 0 | 0 | 0 | 90 | 0 | 40 | 0 | 40 | 40 | 60 | 0 | 0 | 0 | 0 | 0 | 0 | 0 | 30 | 0 | 0 | Corn plant response rating (0 to 100 scale) (corn (Zea mays); 125 g ai/ha): 0; Corn plant response rating (0 to 100 scale) (corn (Zea mays); 500 g ai/ha): 0; Foxtail, Giant plant response rating (0 to 100 scale) ([12]; 125 g ai/ha): 0; Foxtail, Giant plant response rating (0 to 100 scale) ([12]; 500 g ai/ha): 30; Pigweed plant response rating (0 to 100 scale) ([13]; 125 g ai/ha): 0; Pigweed plant response rating (0 to 100 scale) ([13]; 500 g ai/ha): 0; Barnyardgrass plant response rating (0 to 100 scale) ([14]; 125 g ai/ha): 0; Barnyardgrass plant response rating (0 to 100 scale) ([14]; 500 g ai/ha): 40; Wheat plant response rating (0 to 100 scale) ([15]; 125 g ai/ha): 0; Wheat plant response rating (0 to 100 scale) ([15]; 500 g ai/ha): 0; Ryegrass, Italian plant response rating (0 to 100 scale) ([16]; 125 g ai/ha): 0; Ryegrass, Italian plant response rating (0 to 100 scale) ([16]; 500 g ai/ha): 20; Ragweed plant response rating (0 to 100 scale) ([17]; 125 g ai/ha): 0; Ragweed plant response rating (0 to 100 scale) ([17]; 500 g ai/ha): 0; Blackgrass plant response rating (0 to 100 scale) ([18]; 125 g ai/ha): 0; Blackgrass plant response rating (0 to 100 scale) ([18]; 500 g ai/ha): 20 |
